Test results taken from PMC6683251, “Flavanol Bioavailability in Two Cocoa Products with Different Phenolic Content. A Comparative Study in Humans” (Nutrients, 2019).

Assay: Urinary excretion of flavanol metabolites (0-24 h) after a single serving of soluble cocoa product (HPLC-ESI-QToF-MS)
Format: in vivo, human
Conditions: mean ± SD, n = 13; for Excreted in urine, Total: 24 h urine; for Excreted in urine, Basal: basal urine (−2–0 h, before intake)
Method: They were non-smoker, non-vegetarian, non-pregnant women, who were not taking any medication or nutritional supplements, and were not suffering from any chronic pathology or gastrointestinal disorder. The sample size was estimated attending to similar previous bioavailability studies. The volunteers gave their informed consent prior to participation.
The present randomized, single-blind study was carried out at the Human Nutrition Unit (HNU) of the Institute of Food Science, Technology and Nutrition (ICTAN). Volunteers attended the HNU on two days, separated by two weeks. Three days previous to each visit, participants were instructed not to consume cocoa products (chocolate, soluble cocoa, etc.), juices, tea, wine, grape must, oranges, tangerines, apples, grapes, strawberries or other berries, beets, onions, soybeans and soy derivatives.
On each intervention day, volunteers arrived at the HNU after an overnight fast. […] The soluble cocoa products, either 15 g of CC or 25 g CC-PP, were dissolved in 200 mL of semi-skimmed milk following manufacturer’s preparation instructions. Plasma was separated by centrifugation (10 min, 3000 rpm, 4 °C) and stored at −80 °C until further analysis. […] A polyphenol-free breakfast, lunch and afternoon snack were provided 2 h, 4 h, and 8 h after consumption of cocoa products, and water and isotonic beverages were available ad libitum.
Urine samples were diluted with an equivalent volume of Milli-Q water (50%) and centrifuged at 14000 rpm (10 min, 4 °C). Supernatants were filtered (0.45 μm pore-size cellulose-acetate membrane filters) and a 5 µL aliquot was directly injected into the LC-ESI-QToF-MS equipment.
The test samples, either 30 μL of the plasma extract or 5 μL of diluted urine, were injected and separated using a mobile phase consisting of Milli-Q water (phase A) and acetonitrile (phase B), both containing 0.1% formic acid, at a flow rate of 0.3 mL/min. The mobile phase was initially programmed with 90% of solvent A and 10% of B. The elution program increased to 30% of solvent B in 10 min. Then, the initial conditions (10% solvent B) were recovered in 5 min and maintained for 5 min.
Due to the lack of standards for certain phase II metabolites, they were tentatively quantified using the calibration curves of their corresponding phenolic precursors. […] The rest of microbial metabolites identified, derivatives of hydroxyphenylpropionic, hydroxyphenylacetic, hydroxybenzoic and hippuric acids, were quantified using their respective commercially available standards. Urine concentration of the excreted metabolites was normalized by the volume excreted in each studied interval. […] Calibration curves were freshly prepared in a pool of both plasma and urine due to matrix effects.
Statistical analyses were carried out using the program SPSS (version 23.0, SPSS, Inc., IBM Company, New York, NY, USA). Significant differences between metabolites excreted in urine after consumption of CC and CC-PP cocoa products were evaluated based on non-parametric Wilcoxon test (p < 0.05). To determine the absorption and elimination of epicatechin metabolites after consumption of the soluble cocoa products, metabolite nutrikinetics were studied using the pharmacokinetic functions of Microsoft Excel, calculating the maximum concentration (Cmax), area under curve (AUC) and time to reach maximum concentration (Tmax). Data are expressed as mean ± standard deviation.

[1] = after CC-PP (68.25 mg flavanols)

Structure (SMILES)	Excreted in urine, Total (after CC (19.80 mg flavanols))	Excreted in urine, 4–8 h (after CC (19.80 mg flavanols))	Excreted in urine, 8–12 h (after CC (19.80 mg flavanols))	Excreted in urine, 12–24 h (after CC (19.80 mg flavanols))	Excreted in urine, Total [1]	Excreted in urine, 0–4 h [1]	Excreted in urine, 4–8 h [1]	Excreted in urine, 8–12 h [1]	Excreted in urine, 12–24 h [1]	Excreted in urine, Basal (CC intervention)	Excreted in urine, Basal (CC-PP intervention)	Excreted in urine, 0–4 h (after CC (19.80 mg flavanols))
O=C(O)CCC(O)Cc1ccc(O)c(O)c1 (stereo not drawn) [HDHPVA, 4-Hydroxy-5-(3′,4′-dihydroxyphenyl)valeric acid]	<L.Q.	<L.Q.	<L.Q.	<L.Q.	<L.Q.	<L.Q.	<L.Q.	<L.Q.	<L.Q.			
O=C(O)Cc1ccc(O)c(O)c1 [3,4-Dihydroxyphenylacetic acid]	1.525 ± 0.974 µmol	0.556 ± 0.379 µmol	0.094 ± 0.033 µmol	0.133 ± 0.020 µmol	2.153 ± 0.401 µmol	0.751 ± 0.057 µmol	0.556 ± 0.096 µmol	0.198 ± 0.037 µmol	0.539 ± 0.196 µmol	0.094 ± 0.032 µmol	0.109 ± 0.015 µmol	0.648 ± 0.505 µmol
COc1cc(CC(=O)O)ccc1O [3-Methoxy-4-hydroxyphenylacetic acid]	0.398 ± 0.118 µmol	0.093 ± 0.028 µmol	<L.Q.	0.103 ± 0.022 µmol	0.648 ± 0.178 µmol	0.188 ± 0.026 µmol	0.124 ± 0.050 µmol	<L.Q.	0.138 ± 0.016 µmol	0.103 ± 0.014 µmol	0.198 ± 0.071 µmol	0.099 ± 0.054 µmol
O=C(O)Cc1cccc(O)c1 [Hydroxyphenylacetic acid, 3-Hydroxyphenylacetic acid]	2.208 ± 0.328 µmol	0.605 ± 0.092 µmol	0.225 ± 0.052 µmol	0.600 ± 0.100 µmol	2.862 ± 0.654 µmol	0.631 ± 0.140 µmol	0.678 ± 0.231 µmol	0.434 ± 0.070 µmol	0.534 ± 0.143 µmol	0.369 ± 0.077 µmol	0.585 ± 0.070 µmol	0.408 ± 0.084 µmol
O=C(O)c1ccc(O)c(O)c1 [Protocatechuic acid, 3,4-Dihydroxybenzoic acid]	0.959 ± 0.217 µmol	0.373 ± 0.237 µmol	0.094 ± 0.047 µmol	0.104 ± 0.044 µmol	0.528 ± 0.105 µmol	0.105 ± 0.016 µmol	0.113 ± 0.020 µmol	0.095 ± 0.040 µmol	0.127 ± 0.015 µmol	0.161 ± 0.071 µmol	0.088 ± 0.014 µmol	0.227 ± 0.142 µmol
O=C1CCC(Cc2ccc(O[C@@H]3O[C@H](C(=O)O)[C@@H](O)[C@H](O)[C@H]3O)c(O)c2)O1 (stereo partly drawn) [HPVL-4′-glucuronide, 5-(3′-Hydroxyphenyl)-γ-valerolactone-4′-glucuronide]			<L.Q.	<L.Q.	0.961 ± 0.151 µmol	<L.Q.	0.330 ± 0.111 µmol	0.550 ± 0.015 µmol	0.081 ± 0.025 µmol	<L.Q.	<L.Q.	<L.Q.
COc1ccc([C@H]2Oc3cc(O)cc(OS(=O)(=O)O)c3C[C@H]2O)cc1O (single isomer, unassigned) [Epicatechin-methoxy-sulfate (isomer 3), Epicatechin-methoxy-sulfate]	0.758 ± 0.125 µmol	0.285 ± 0.036 µmol	<L.Q.		2.354 ± 0.402 µmol	1.702 ± 0.243 µmol	0.652 ± 0.148 µmol	<L.Q.	<L.Q.			0.473 ± 0.089 µmol
O=C(O)CCc1ccc(O)c(O)c1 [3,4-Dihydroxyphenylpropionic acid]	0.866 ± 0.148 µmol	0.243 ± 0.039 µmol	0.074 ± 0.017 µmol	0.215 ± 0.016 µmol	1.117 ± 0.131 µmol	0.256 ± 0.027 µmol	0.238 ± 0.028 µmol	0.109 ± 0.016 µmol	0.301 ± 0.029 µmol	0.117 ± 0.024 µmol	0.213 ± 0.031 µmol	0.217 ± 0.051 µmol
O=C1CCC(Cc2cccc(OC3OC(C(=O)O)C(O)C(O)C3O)c2)O1 (stereo not drawn) [PVL-3′glucuronide, 5-Phenyl-γ-valerolactone-3′-glucuronide]	0.438 ± 0.255 µmol	0.233 ± 0.155 µmol	0.126 ± 0.078 µmol	0.079 ± 0.022 µmol	1.316 ± 0.648 µmol	0.108 ± 0.045 µmol	0.521 ± 0.191 µmol	0.179 ± 0.063 µmol	0.508 ± 0.349 µmol		<L.Q.	<L.Q.
